In ChEMBL document CHEMBL3885881, “DrugMatrix”:

Species on record: Rattus norvegicus
Test: DrugMatrix - Regimen: Daily Repeat
Type: toxicity, organism-based, Sprague-Dawley
Parameters: regimen Daily Repeat, gender Male, age 6-8 weeks
Conditions: in vivo, po, route oral GAVAGE, vehicle .5 % CMC; for ABSOLUTE BASOPHIL / ABSOLUTE EOSINOPHIL / ABSOLUTE LYMPHOCYTE / ABSOLUTE MONOCYTE / ABSOLUTE SEGMENTED NEUTROPHIL / BASOPHIL / EOSINOPHIL / HEMATOCRIT / LEUKOCYTE COUNT / LYMPHOCYTE / MEAN CORPUSCULAR HEMOGLOBIN / MEAN CORPUSCULAR HEMOGLOBIN CONCENTRATION / MEAN CORPUSCULAR VOLUME / MONOCYTE / NEUTROPHIL / NUCLEATED RED BLOOD CELLS / PLATELET COUNT: tissue Blood; for ALANINE AMINOTRANSFERASE / ALBUMIN / ALKALINE PHOSPHATASE / ASPARTATE AMINOTRANSFERASE / BLOOD UREA NITROGEN / CARBON DIOXIDE / CHLORIDE / CHOLESTEROL / CREATININE / GLUCOSE / LACTATE DEHYDROGENASE / LIPASE / PHOSPHORUS / TOTAL BILIRUBIN / TOTAL PROTEIN / URIC ACID / SODIUM: tissue Plasma
[1] = 0 mg/kg, 72 h, dose level Control, time 3 day
[2] = 0 mg/kg, 120 h, dose level Control, time 5 day
[3] = 23 mg/kg, 72 h, dose level High, time 3 day

Cc1cc2c(s1)Nc1ccccc1N=C2N1CCN(C)CC1 [OLANZAPINE]
ABSOLUTE BASOPHIL [1]: 0 CELLS/uL
ABSOLUTE EOSINOPHIL [1]: 47.67 CELLS/uL
ABSOLUTE LYMPHOCYTE [1]: 15937.67 CELLS/uL
ABSOLUTE MONOCYTE [1]: 138.33 CELLS/uL
ABSOLUTE SEGMENTED NEUTROPHIL [1]: 1443 CELLS/uL
BASOPHIL [1]: 0%
EOSINOPHIL [1]: 0.33%
HEMATOCRIT [1]: 34.43%
LEUKOCYTE COUNT [1]: 17.57 x10E3/uL
LYMPHOCYTE [1]: 90.33%
MEAN CORPUSCULAR HEMOGLOBIN [1]: 24.6 pg
MEAN CORPUSCULAR HEMOGLOBIN CONCENTRATION [1]: 38.88 G/DL
MEAN CORPUSCULAR VOLUME [1]: 63.27 fL
MONOCYTE [1]: 0.83%
NEUTROPHIL [1]: 8.5%
NUCLEATED RED BLOOD CELLS [1]: 0 /100WBC
PLATELET COUNT [1]: 1298 x10E3/uL
ALANINE AMINOTRANSFERASE [1]: 47.67 u/L
ALBUMIN [1]: 4.18 G/DL
ALKALINE PHOSPHATASE [1]: 398.5 u/L
ASPARTATE AMINOTRANSFERASE [1]: 93.17 u/L
BLOOD UREA NITROGEN [1]: 16 mg/dL
CARBON DIOXIDE [1]: 29.17 mmol/L
CHLORIDE [1]: 98.17 MEQ/L
CHOLESTEROL [1]: 68.83 mg/dL
CREATININE [1]: 0.14 mg/dL
GLUCOSE [1]: 151.67 mg/dL
LACTATE DEHYDROGENASE [1]: 597.5 u/L
LIPASE [1]: 9.33 u/L
PHOSPHORUS [1]: 11.97 mg/dL
TOTAL BILIRUBIN [1]: 0.18 mg/dL
TOTAL PROTEIN [1]: 5.82 G/DL
URIC ACID [1]: 1.48 mg/dL
ABSOLUTE BASOPHIL [2]: 0 CELLS/uL
ABSOLUTE EOSINOPHIL [2]: 31 CELLS/uL
ABSOLUTE LYMPHOCYTE [2]: 14327.83 CELLS/uL
ABSOLUTE MONOCYTE [2]: 102.83 CELLS/uL
ABSOLUTE SEGMENTED NEUTROPHIL [2]: 1321.67 CELLS/uL
BASOPHIL [2]: 0%
EOSINOPHIL [2]: 0.17%
HEMATOCRIT [2]: 36.1%
LEUKOCYTE COUNT [2]: 15.78 x10E3/uL
LYMPHOCYTE [2]: 90.5%
MEAN CORPUSCULAR HEMOGLOBIN [2]: 24.48 pg
MEAN CORPUSCULAR HEMOGLOBIN CONCENTRATION [2]: 39.22 G/DL
MEAN CORPUSCULAR VOLUME [2]: 62.4 fL
MONOCYTE [2]: 0.67%
NEUTROPHIL [2]: 8.67%
NUCLEATED RED BLOOD CELLS [2]: 0.17 /100WBC
PLATELET COUNT [2]: 1211.67 x10E3/uL
ALANINE AMINOTRANSFERASE [2]: 49 u/L
ALBUMIN [2]: 4.27 G/DL
ALKALINE PHOSPHATASE [2]: 356.67 u/L
ASPARTATE AMINOTRANSFERASE [2]: 90.17 u/L
BLOOD UREA NITROGEN [2]: 20.5 mg/dL
CARBON DIOXIDE [2]: 29.17 mmol/L
CHLORIDE [2]: 98 MEQ/L
CHOLESTEROL [2]: 69.83 mg/dL
CREATININE [2]: 0.21 mg/dL
GLUCOSE [2]: 149.83 mg/dL
LACTATE DEHYDROGENASE [2]: 322 u/L
LIPASE [2]: 10 u/L
PHOSPHORUS [2]: 12 mg/dL
SODIUM [2]: 142.8 MEQ/L
TOTAL BILIRUBIN [2]: 0.17 mg/dL
TOTAL PROTEIN [2]: 6.1 G/DL
URIC ACID [2]: 1.68 mg/dL
ABSOLUTE BASOPHIL [3]: 0 CELLS/uL
ABSOLUTE EOSINOPHIL [3]: 0 CELLS/uL
ABSOLUTE LYMPHOCYTE [3]: 12570 CELLS/uL
ABSOLUTE MONOCYTE [3]: 145.67 CELLS/uL
ABSOLUTE SEGMENTED NEUTROPHIL [3]: 851 CELLS/uL
BASOPHIL [3]: 0%
EOSINOPHIL [3]: 0%
HEMATOCRIT [3]: 37.27%
LEUKOCYTE COUNT [3]: 13.57 x10E3/uL
LYMPHOCYTE [3]: 92.67%
MEAN CORPUSCULAR HEMOGLOBIN [3]: 24.63 pg
MEAN CORPUSCULAR HEMOGLOBIN CONCENTRATION [3]: 39.1 G/DL
MEAN CORPUSCULAR VOLUME [3]: 63 fL
MONOCYTE [3]: 1%
NEUTROPHIL [3]: 6.33%
NUCLEATED RED BLOOD CELLS [3]: 0 /100WBC
PLATELET COUNT [3]: 1303 x10E3/uL
ALANINE AMINOTRANSFERASE [3]: 52 u/L
ALBUMIN [3]: 4.4 G/DL
ALKALINE PHOSPHATASE [3]: 415.67 u/L
ASPARTATE AMINOTRANSFERASE [3]: 84 u/L
BLOOD UREA NITROGEN [3]: 21.33 mg/dL
CARBON DIOXIDE [3]: 26.33 mmol/L
CHLORIDE [3]: 102 MEQ/L
CHOLESTEROL [3]: 86.67 mg/dL
CREATININE [3]: 0.21 mg/dL
GLUCOSE [3]: 155.67 mg/dL
LACTATE DEHYDROGENASE [3]: 203.33 u/L
LIPASE [3]: 9.67 u/L
PHOSPHORUS [3]: 11.47 mg/dL
SODIUM [3]: 144.27 MEQ/L
TOTAL BILIRUBIN [3]: 0.23 mg/dL
TOTAL PROTEIN [3]: 5.97 G/DL
URIC ACID [3]: 1.83 mg/dL
